Experimental data reported in paper PMC2746412 (European journal of pharmacology, 2009).
Like-named read-outs stand apart in the source and are kept apart here.

Assays:
GFP-hSERT [1] = target: T1, GFP-hSERT (Homo sapiens, UniProt P31645); assay: Inhibition of [3H]-serotonin uptake in transfected COS-7 cells; format: cell-based
GFP-SmSERT-A [2] = target: T2, GFP-SmSERT-A (Schistosoma mansoni, UniProt Q3HL76); assay: cell-based; format: cell-based; conditions: for potency difference versus SmSERTs as compared with hSERT (fold less potent at SmSERTs): SmSERTs (A and B) vs hSERT, from IC50 of Table 1
GFP-SmSERT-B [3] = target: T3, GFP-SmSERT-B (Schistosoma mansoni, UniProt Q3I1M7); assay: cell-based
GFP-hSERT [4] = target: T1, GFP-hSERT; format: cell-based
GFP-SmSERT-A [5] = target: T2, GFP-SmSERT-A; assay: [3H]-serotonin efflux experiment in COS-7 cells
GFP-SmSERT-B [6] = target: T3, GFP-SmSERT-B; assay: [3H]-serotonin efflux experiment in COS-7 cells
SmSERT-A = SmSERT-A (Schistosoma mansoni, UniProt Q3HL76); assay: Two-electrode voltage clamp of substrate-elicited currents in Xenopus oocytes; format: cell-based; conditions: for substrate-elicited transport-associated currents, SmSERT-A: voltage-clamped Xenopus oocytes
SmSERT-B = SmSERT-B (Schistosoma mansoni, UniProt Q3I1M7); format: cell-based; conditions: for substrate-elicited transport-associated currents, SmSERT-B: voltage-clamped Xenopus oocytes
GFP-SmSERT-A [7] = target: T2, GFP-SmSERT-A; format: cell-based; conditions: COS-7 cells
GFP-SmSERT-B [8] = target: T3, GFP-SmSERT-B; format: cell-based; conditions: COS-7 cells
S. mansoni sporocysts [9] = conditions: living sporocysts; ref Boyle et al., 2003; cited from earlier work
S. mansoni adult worms = conditions: ref Wood and Mansour, 1986, cited from earlier work
S. mansoni sporocysts [10] = conditions: treatment of the sporocyst snail stage; ref Boyle and Yoshino, 2005; cited from earlier work
Schistosoma infections = conditions: ref Gryseels et al., 2006; cited from earlier work
[11] = read-out: IC50 for serotonin transporter substrates, SmSERT-A
[12] = read-out: IC50 for serotonin transporter substrates, hSERT
[13] = Imax / (Vmax * Faraday constant), same batches of oocytes

T1 sequence (P31645 whole entry): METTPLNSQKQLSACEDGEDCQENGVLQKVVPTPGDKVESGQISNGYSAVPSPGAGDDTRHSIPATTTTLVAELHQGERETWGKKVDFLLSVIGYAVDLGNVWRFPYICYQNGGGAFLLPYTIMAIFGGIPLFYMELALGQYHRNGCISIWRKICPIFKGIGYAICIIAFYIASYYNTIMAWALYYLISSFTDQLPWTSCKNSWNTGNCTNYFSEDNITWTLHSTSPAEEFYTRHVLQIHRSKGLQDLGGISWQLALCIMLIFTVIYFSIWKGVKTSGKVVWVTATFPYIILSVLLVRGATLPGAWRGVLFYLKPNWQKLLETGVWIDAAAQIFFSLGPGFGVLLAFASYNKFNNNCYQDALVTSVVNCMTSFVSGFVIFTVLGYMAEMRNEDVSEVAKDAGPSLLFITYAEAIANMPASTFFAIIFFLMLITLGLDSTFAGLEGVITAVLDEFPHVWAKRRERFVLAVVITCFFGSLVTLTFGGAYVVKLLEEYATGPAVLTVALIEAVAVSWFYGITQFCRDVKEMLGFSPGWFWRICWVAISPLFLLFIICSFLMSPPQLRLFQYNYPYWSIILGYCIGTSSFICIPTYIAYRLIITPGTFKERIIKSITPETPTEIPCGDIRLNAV

COc1ccc2[nH]cc(C3=CCNCC3)c2c1 [RU 24969]
IC50 (GFP-hSERT [1]): 8500 ± 900 nM
IC50 (GFP-SmSERT-A [2]): 180000 ± 63000 nM
IC50 (GFP-SmSERT-B [3]): 165000 ± 65000 nM
[3H]-serotonin efflux elicited by compound, hSERT (GFP-hSERT [4]): able to elicit serotonin efflux

COC(=O)[C@H]1C(c2ccc(I)cc2)C[C@@H]2CC[C@H]1N2C (some centres unmarked) [RTI-55]
IC50 (GFP-hSERT [1]; read-out: IC50 for inhibiting serotonin uptake, hSERT): 10 ± 10 nM
potency difference versus SmSERTs as compared with hSERT (fold less potent at SmSERTs) (GFP-SmSERT-A [2]): 60 fold
IC50 (GFP-SmSERT-A [2]; read-out: IC50 for inhibiting serotonin uptake, SmSERT-A): 600 ± 400 nM
IC50 (GFP-SmSERT-B [3]; read-out: IC50 for inhibiting serotonin uptake, SmSERT-B, COS-7 cells, 100 nM [3H]serotonin, 10 min, mean ± SD): 600 ± 400 nM

CN(C)CCCN1c2ccccc2CCc2ccccc21 [Imipramine]
IC50 (GFP-SmSERT-A [2]): 300 ± 100 nM
IC50 (GFP-SmSERT-B [3]): 300 ± 200 nM

COC(=O)[C@H]1[C@@H](OC(=O)c2ccccc2)C[C@@H]2CC[C@H]1N2C [Cocaine]
IC50 (GFP-SmSERT-A [2]): 37600 ± 16000 nM
IC50 (GFP-SmSERT-B [3]): 35400 ± 7600 nM

C[C@H](N)Cc1ccccc1 [S(+)Amphetamine]
IC50 (GFP-SmSERT-A [2]; [11]): 300000 ± 27000 nM
[3H]-serotonin efflux elicited by compound, SmSERT-A (GFP-SmSERT-A [5]): not transported
[3H]-serotonin efflux elicited by compound, SmSERT-B (GFP-SmSERT-B [6]): not transported

Cl.Cl.Clc1cccc(N2CCNCC2)c1 [m-CPP, m-1-(3-Chlorophenyl)piperazine dihydrochloride]
IC50 (GFP-hSERT [1]; [12]): 1800 ± 300 nM
IC50 (GFP-SmSERT-A [2]; [11]): 58000 ± 4000 nM
[3H]-serotonin efflux elicited by compound, hSERT (GFP-hSERT [4]): able to elicit serotonin efflux
[3H]-serotonin efflux elicited by compound, SmSERT-A (GFP-SmSERT-A [5]): not transported
[3H]-serotonin efflux elicited by compound, SmSERT-B (GFP-SmSERT-B [6]): not transported

NCCc1c[nH]c2ccccc12 [Tryptamine]
IC50 (GFP-hSERT [1]): 1400 ± 100 nM
IC50 (GFP-SmSERT-A [2]): 19600 ± 3600 nM
IC50 (GFP-SmSERT-B [3]): 19300 ± 4400 nM
[3H]-serotonin efflux elicited by compound, hSERT (GFP-hSERT [4]): able to elicit serotonin efflux
substrate-elicited transport-associated currents, SmSERT-A (SmSERT-A): elicits clear transport associated currents
substrate-elicited transport-associated currents, SmSERT-B (SmSERT-B): elicits clear transport associated currents

CSc1ccc2c(c1)C(N1CCN(C)CC1)Cc1ccccc1S2 (centres unmarked) [Methiothepin]
IC50 (GFP-hSERT [1]): 6700 ± 4100 nM
IC50 (GFP-SmSERT-A [2]): 1900 ± 700 nM
IC50 (GFP-SmSERT-B [3]): 2200 ± 700 nM

O=[N+]([O-])c1ccc2nc(N3CCNCC3)ccc2c1 [6-Nitroquipazine]
IC50 (GFP-hSERT [1]): 2 ± 0.4 nM
IC50 (GFP-SmSERT-A [2]): 4 ± 2 nM
potency difference versus SmSERTs as compared with hSERT (fold less potent at SmSERTs) (GFP-SmSERT-A [2]): two-fold
IC50 (GFP-SmSERT-B [3]): 4 ± 2 nM

NCCc1c[nH]c2ccc(O)cc12 [serotonin, 5-hydroxytryptamine]
transport of tritiated substrate by SmSERT-A (GFP-SmSERT-A [7]; data not shown): transport
Vmax of serotonin uptake, SmSERT-A (GFP-SmSERT-A [7]; mean ± SD of three experiments): 1.8 ± 1.4 pmol/min
Km (GFP-SmSERT-A [7]; read-out: apparent affinity (KT / KM) for serotonin uptake, SmSERT-A, 10 min, room temperature, mean ± SD of three experiments): 2.3 ± 0.9 µM
transport of tritiated substrate by SmSERT-B (GFP-SmSERT-B [8]; data not shown): transport
Vmax of serotonin uptake, SmSERT-B (GFP-SmSERT-B [8]; mean ± SD of three experiments): 1.4 ± 1.1 pmol/min
Km (GFP-SmSERT-B [8]; read-out: apparent affinity (KT / KM) for serotonin uptake, SmSERT-B, 10 min, room temperature, mean ± SD of three experiments): 2.2 ± 1.1 µM
charges moved per serotonin molecule transported (Q/Jmax), SmSERT-A (SmSERT-A; [13]): 1.9 charges
substrate-elicited transport-associated currents, SmSERT-A (SmSERT-A): concentration-dependent inward currents
charges moved per serotonin molecule transported (Q/Jmax), SmSERT-B (SmSERT-B; [13]): 1.9 charges
substrate-elicited transport-associated currents, SmSERT-B (SmSERT-B): concentration-dependent inward currents
apparent affinity for serotonin uptake in sporocysts (S. mansoni sporocysts [9]): 1.4 µM
apparent affinity for serotonin uptake, adult female worms (S. mansoni adult worms; living adult female parasites): 1.46 µM
apparent affinity for serotonin uptake, adult male worms (S. mansoni adult worms; living adult male parasites): 1.73 µM

CNCCC(Oc1ccc(C(F)(F)F)cc1)c1ccccc1 (centres unmarked) [Fluoxetine]
production of daughter sporocysts (S. mansoni sporocysts [10]): prevents the production of daughter sporocysts

CNC(C)Cc1ccc2c(c1)OCO2 (racemic) [(±)MDMA]
IC50 (GFP-hSERT [1]; [12]): 2700 ± 500 nM
IC50 (GFP-SmSERT-A [2]; [11]): 320000 ± 162000 nM
[3H]-serotonin efflux elicited by compound, hSERT (GFP-hSERT [4]): able to elicit serotonin efflux
[3H]-serotonin efflux elicited by compound, SmSERT-A (GFP-SmSERT-A [5]): not transported
[3H]-serotonin efflux elicited by compound, SmSERT-B (GFP-SmSERT-B [6]): not transported

O=C(C1CCCCC1)N1CC(=O)N2CCc3ccccc3C2C1 (centres unmarked) [praziquantel]
activity on immature worms and eggs (Schistosoma infections): not active on immature worms and eggs
